Data reported in ChEMBL document CHEMBL1149535, “2-Arylimino-5,6-dihydro-4H-1,3-thiazines as a new class of cannabinoid receptor agonists. Part 2: orally bioavailable compounds” (Bioorg Med Chem Lett, 2007).

Tests used:
[1] = biological target: Cannabinoid receptor 1 (Homo sapiens, UniProt P21554); test: Binding affinity to human CB1 receptor
[2] = biological target: Cannabinoid receptor 2 (Homo sapiens, UniProt P34972); test: Binding affinity to human CB2 receptor
[3] = Oral bioavailability in rat at 1 mg/kg; assay type: ADME, organism-based; conditions: in vivo
[4] = Total clearance in rat at 0.5 mg/kg, iv and 1 mg/kg, po; assay type: ADME, organism-based; conditions: in vivo
[5] = test system: Mus musculus; test: Analgesic activity against formalin-induced acute pain in po dosed mouse; assay type: functional
[6] = biological target: Cannabinoid receptor 1 (Mus musculus, UniProt P47746); test: Binding affinity to mouse CB1 receptor
Cannabinoid receptor 1 (Mus musculus, UniProt P47746), sequence (P47746 whole entry): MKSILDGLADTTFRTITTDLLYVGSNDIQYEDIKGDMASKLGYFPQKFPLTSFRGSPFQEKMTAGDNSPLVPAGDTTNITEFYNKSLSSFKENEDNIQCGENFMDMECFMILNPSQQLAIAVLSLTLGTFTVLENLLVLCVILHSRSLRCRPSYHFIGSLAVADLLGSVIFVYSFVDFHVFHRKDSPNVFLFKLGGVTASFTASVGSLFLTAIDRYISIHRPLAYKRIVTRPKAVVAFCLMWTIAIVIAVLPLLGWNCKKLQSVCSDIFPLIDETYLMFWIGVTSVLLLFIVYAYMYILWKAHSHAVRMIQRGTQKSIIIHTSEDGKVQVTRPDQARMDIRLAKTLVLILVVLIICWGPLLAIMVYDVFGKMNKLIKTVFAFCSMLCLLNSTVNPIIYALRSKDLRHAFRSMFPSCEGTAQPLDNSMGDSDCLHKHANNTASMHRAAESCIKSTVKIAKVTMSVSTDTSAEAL

[7] = test system: Mus musculus; test: Analgesic activity against formalin-induced inflammatory pain in po dosed mouse; assay type: functional
[8] = Oral bioavailability in rat at 30 mg/kg; assay type: ADME, organism-based; conditions: in vivo
[9] = Total clearance in rat at 2 mg/kg, iv and 30 mg/kg, po; assay type: ADME, organism-based; conditions: in vivo
[10] = test system: Mus musculus; test: Analgesic activity against formalin-induced inflammatory pain in iv dosed mouse; assay type: functional
[11] = biological target: Cannabinoid receptor 2 (Mus musculus, UniProt P47936); test: Binding affinity to mouse CB2 receptor
Cannabinoid receptor 2 (Mus musculus, UniProt P47936), sequence (P47936 whole entry): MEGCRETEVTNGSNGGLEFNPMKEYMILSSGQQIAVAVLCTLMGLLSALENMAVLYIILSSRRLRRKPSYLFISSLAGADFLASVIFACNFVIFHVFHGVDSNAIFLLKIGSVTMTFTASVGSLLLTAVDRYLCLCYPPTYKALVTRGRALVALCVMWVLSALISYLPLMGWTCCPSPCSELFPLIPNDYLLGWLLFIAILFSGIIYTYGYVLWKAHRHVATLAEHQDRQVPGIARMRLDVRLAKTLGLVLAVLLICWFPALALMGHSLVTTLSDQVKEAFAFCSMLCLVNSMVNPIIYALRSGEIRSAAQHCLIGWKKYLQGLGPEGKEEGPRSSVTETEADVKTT

[12] = Half life in rat at 2 mg/kg, iv and 30 mg/kg, po; assay type: ADME, organism-based; conditions: in vivo
[13] = test system: Mus musculus; test: Analgesic activity against formalin-induced acute pain in iv dosed mouse; assay type: functional
[14] = AUC in rat at 30 mg/kg, po; assay type: ADME, organism-based; parameters: dose 30 mg/kg, route oral; conditions: plasma

Cannabinoid receptor 1 (Homo sapiens, UniProt P21554), sequence (P21554 whole entry): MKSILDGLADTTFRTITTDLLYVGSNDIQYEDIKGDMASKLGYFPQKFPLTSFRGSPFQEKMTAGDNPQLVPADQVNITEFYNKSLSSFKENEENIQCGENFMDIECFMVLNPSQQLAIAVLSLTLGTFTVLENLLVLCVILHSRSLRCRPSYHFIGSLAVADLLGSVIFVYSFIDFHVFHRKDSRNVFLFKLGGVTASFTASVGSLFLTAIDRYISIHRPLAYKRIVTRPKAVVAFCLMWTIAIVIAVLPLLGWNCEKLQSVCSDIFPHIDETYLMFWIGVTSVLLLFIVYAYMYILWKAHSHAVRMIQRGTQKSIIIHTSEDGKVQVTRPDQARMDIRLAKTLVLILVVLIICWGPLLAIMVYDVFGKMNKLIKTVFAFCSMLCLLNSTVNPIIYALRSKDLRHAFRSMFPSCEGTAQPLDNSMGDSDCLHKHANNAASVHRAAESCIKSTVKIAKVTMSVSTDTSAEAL
Cannabinoid receptor 2 (Homo sapiens, UniProt P34972), sequence (P34972 whole entry): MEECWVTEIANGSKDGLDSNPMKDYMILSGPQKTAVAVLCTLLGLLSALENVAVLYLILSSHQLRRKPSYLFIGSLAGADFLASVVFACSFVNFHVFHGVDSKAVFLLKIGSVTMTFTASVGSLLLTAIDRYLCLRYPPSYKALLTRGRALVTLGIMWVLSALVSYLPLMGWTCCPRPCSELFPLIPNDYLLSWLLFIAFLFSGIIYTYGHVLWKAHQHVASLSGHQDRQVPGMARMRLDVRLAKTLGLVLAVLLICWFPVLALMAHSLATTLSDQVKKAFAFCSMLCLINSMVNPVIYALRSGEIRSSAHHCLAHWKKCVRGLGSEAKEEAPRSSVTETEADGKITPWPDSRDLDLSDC

Row | SMILES | Ki [1] [µM] | Ki [2] [µM] | bioavailability [3] [%] | clearance [4] [mL/min/kg] | also measured
1 | CSC(=S)N1CC2(CCCCC2)CS/C1=N\c1cccc(C(C)C)c1 | 0.1 | 0.0025 |  |  | 
2 | COc1ccccc1/N=C1\SCC2(CCCCC2)CN1C(=S)SC | 0.013 | 0.0011 | 0.4 | 75.9 | 
3 | COc1cccc(/N=C2\SCC3(CCCCC3)CN2C(=S)SC)c1 | 0.108 | 0.001 | 13 | 45.1 | 
4 | COc1ccc(/N=C2\SCC3(CCCCC3)CN2C(=S)SC)cc1 | 0.671 | 0.0038 |  |  | 
5 | CCCc1ccc(/N=C2\SCC3(CCCCC3)CN2C(=S)SC)cc1 | 0.514 | 0.007 |  |  | 
6 | CSC(=S)N1CC2(CCCCC2)CS/C1=N\c1ccc(C(F)(F)F)cc1 | 1.73 | 0.018 |  |  | 
7 | CSC(=S)N1CC2(CCCCC2)CS/C1=N\c1cccc2c1CCCC2 | 0.015 | 0.0002 | 44 | 19.1 | ED50 [5]: 2.5 mg/kg; Ki [6]: 0.006 µM; ED50 [7]: 4 mg/kg; bioavailability [8]: 7%; clearance [9]: 23.3 mL/min/kg; ED50 [10]: 0.2 mg/kg; Ki [11]: 0.0007 µM; half-life [12]: 4.1 h; ED50 [13]: 0.3 mg/kg; AUC [14]: 1500 ng·h/mL
8 | CSC(=S)N1CC2(CCCCC2)CS/C1=N\c1ccc2c(c1)CCCC2 | 0.396 | 0.024 |  |  | 
9 | CSC(=S)N1CC2(CCCCC2)CS/C1=N\c1ccc(OC(F)(F)F)cc1 | 1.5 | 0.006 | 24 | 7.4 | ED50 [5]: > 100 mg/kg; Ki [6]: 1.21 µM; ED50 [7]: > 100 mg/kg; bioavailability [8]: 20%; clearance [9]: 25.9 mL/min/kg; ED50 [10]: > 20 mg/kg; Ki [11]: 0.007 µM; half-life [12]: 2.4 h; ED50 [13]: > 20 mg/kg; AUC [14]: 3900 ng·h/mL
10 | CCOc1ccccc1/N=C1\SCC2(CCCCC2)CN1C(=S)SC | 0.358 | 0.0063 |  |  | 
11 | CSC(=S)N1CC2(CCCCC2)CS/C1=N\c1ccccc1C(F)(F)F | 0.418 | 0.0011 |  |  | 
12 | CSC(=S)N1CC2(CCCCC2)CS/C1=N\c1cccc(C)c1C | 0.114 | 0.001 |  |  | 
13 | CSC(=S)N1CC2(CCCCC2)CS/C1=N\c1cccc2ccccc12 | 0.03 | 0.006 | 53 | 17.7 | ED50 [5]: 1.5 mg/kg; Ki [6]: 0.0068 µM; ED50 [7]: 1 mg/kg; bioavailability [8]: 36%; clearance [9]: 30.1 mL/min/kg; ED50 [10]: 0.4 mg/kg; Ki [11]: 0.004 µM; half-life [12]: 1.5 h; ED50 [13]: 0.4 mg/kg; AUC [14]: 6100 ng·h/mL
14 | CSC(=S)N1CC2(CCCCC2)CS/C1=N\c1cccc2nsnc12 | 0.044 | 0.0013 |  | 60.4 | 
15 | CSC(=S)N1CC2(CCCCC2)CS/C1=N\c1cccc2nonc12 | 0.246 | 0.0009 |  |  | 
16 | CSC(=S)N1CC(C)(C)CS/C1=N\c1ccccc1C(C)C | > 5 |  | 10 | 63.4 | 
17 | CSC(=S)N1CC2(CC2)CS/C1=N\c1ccccc1C(C)C |  | 0.065 | 14 | 85.1 | 
18 | CSC(=S)N1CC2(CCCC2)CS/C1=N\c1ccccc1C(C)C | 0.541 | 0.001 | 8.9 | 54.2 | 
19 | CSC(=S)N1CC2(CCCCC2)CS/C1=N\c1cccc2c1CCCN2C | 0.085 | 0.0011 |  |  | 
20 | CSC(=S)N1CC2(CCCCC2)CS/C1=N\c1cccc2c1CCC2 | 0.243 | 0.005 |  |  | 
21 | CCC1(CC)CS/C(=N\c2ccccc2C(C)C)N(C(=S)SC)C1 | > 5 | 0.009 | 19 | 48.3 | 
22 | CSC(=S)N1CC2(CCCCC2)CS/C1=N\c1ccc(C(C)C)cc1 | 1.26 | 0.023 |  |  | 
23 | CCc1ccc(/N=C2\SCC3(CCCCC3)CN2C(=S)SC)cc1 | 0.095 | 0.0012 |  |  | 
24 | CSC(=S)N1CC2(CCCCC2)CS/C1=N\c1ccc(C#N)cc1 | 0.173 | 0.0023 |  |  | 
25 | CSC(=S)N1CC2(CCCCC2)CS/C1=N\c1ccccc1OC(F)(F)F | 0.711 | 0.012 |  |  | 
26 | CSC(=S)N1CC2(CCCCC2)CS/C1=N\c1cccc2ncccc12 | 0.763 | 0.011 | 42 | 121 | 
27 | CSC(=S)N1CC2(CCCCC2)CS/C1=N\c1ccccc1C(C)C | 0.122 | 0.0008 | 32 | 18.6 | ED50 [5]: 17.5 mg/kg; Ki [6]: 0.08 µM; ED50 [7]: 17.5 mg/kg; bioavailability [8]: 24%; clearance [9]: 38.2 mL/min/kg; ED50 [10]: 1.1 mg/kg; Ki [11]: 0.0012 µM; half-life [12]: 2.5 h; ED50 [13]: 1.2 mg/kg; AUC [14]: 3200 ng·h/mL
28 | CCCCCc1cc(O)c2c(c1)OC(C)(C)[C@@H]1CCC(C)=C[C@@H]21 [DRONABINOL] |  |  |  |  | ED50 [10]: 0.3 mg/kg; ED50 [13]: 0.4 mg/kg
29 | CN1CC[C@]23c4c5ccc(O)c4O[C@H]2[C@@H](O)C=C[C@H]3[C@H]1C5 [MORPHINE] |  |  |  |  | ED50 [5]: 27.3 mg/kg; ED50 [7]: 9.8 mg/kg; ED50 [10]: 1.1 mg/kg; ED50 [13]: 1.1 mg/kg
